# Experimental data reported in patent US4940716A, “2-amino-tetrahydro-isoquinolene derivatives and a process for the preparation thereof and pharmaceutical compositions containing same” (Chinoin Gyogyszer es Vegyeszeti Termekek Gyara Rt, priority 1987, dated 1990).
# Test: Salidiuretic screening test in rats (Lipschitz method modified by Kagawa and Kalm), 5 mg/kg p.o.
# Assay type: in vivo, rats (LATI CFY strain, male)
# Settings: for K secretion, % of simultaneously measured control / Na secretion, % of simultaneously measured control / Water secretion, % of simultaneously measured control / secreted Na/K: single oral dose 5 mg/kg, rat; for Na/K ratio (in words) / secretion of urine amount and alkali metal ion: 5 mg/kg per os, rats; for secretion of urine amount and alkali metal ion: compared with dihydrochlorothiazide and furosemid
# Description: Significant diuretic compounds containing an isoquinoline ring system have not been disclosed and therefore it is surprising that the compounds of the Formula (I) show a significant diuretic and saluretic activity. In a screening test carried out in rats (administered per os 5 mg/kg) the compounds according to the invention were compared with dihydrochlorothiazide and furosemid. […] Screen tests were carried out in masculine rats belonging to […] strain weighing at an average 240 g. The animals obtained standard rat nourishment. 16 hours before the experiment the animals were deprived of nourishment but the liquid uptake was not restricted. In order to show diuretic activity the procedure of Lipschitznek modified by Kagawa and Kalm was used. (Arch. Int. Pharmacodyn. 137, 241-249 (1962). The animals were placed into a metabolism cage. The urine collection was carried out in 0-6 and 0-24 hour periods. The control animals were administered 25 cm^3 /kg physiological salt solution through a gastric tube. The test substance was administered to the animals through a gastric tube at a dose of 5 mg/kg in physiological salt solution of an amount corresponding to the amount of physiological salt solution given to the control animals. After 6 hours the animals were administered the same volume of physiological saline solution as the volume excreted with 0-6 hours through a gastric tube. The amount of secreted urine between 0 to 6 and 0 to 24 hours was measured and calculated together with the concentration of sodium and potassium and the Na/K ratio of the urine secreted within a given period. Simultaneously with each test control groups treated with physiological salt solution and hypothiazide were used. Effect of a single oral dose of 5 mg/kg of the compouns on the secretion of water, sodium and potassium within 0-6 and 0-24 hours in the % of the simultaneously measured control values and on the secreted Na/K.
Structure (SMILES),"K secretion, % of simultaneously measured control (0-6 h) [%]","Na secretion, % of simultaneously measured control (0-6 h) [%]","Water secretion, % of simultaneously measured control (0-6 h) [%]","secreted Na/K (0-6 h, control 1.81)","K secretion, % of simultaneously measured control (0-24 h) [%]","Na secretion, % of simultaneously measured control (0-24 h) [%]","Water secretion, % of simultaneously measured control (0-24 h) [%]","secreted Na/K (0-24 h, control 2.45)",Na/K ratio (in words),secretion of urine amount and alkali metal ion
"CC1c2ccccc2CCN1NC(=O)c1ccc(Cl)c(S(N)(=O)=O)c1 (stereo not drawn) [Example 2, 1-methyl-2-[(3'-sulfamoyl-4'-chloro)-benzoyl]-amino-1,2,3,4-tetrahydro-isoquinoline]",170,279,233,7.56,100,151,154,5.38,favorable,particularly advantageous
"NS(=O)(=O)c1cc2c(cc1Cl)NCNS2(=O)=O [Hypothiazide, reference compound]",117,187,159,3.90,109,123,119,3.50,–,–
"NS(=O)(=O)c1cc(C(=O)NN2CCc3ccccc3C2)ccc1Cl [Example 1, 2-[(3'-sulfamoyl-4'-chloro)-benzoyl]-amino-1,2,3,4-tetrahydro-isoquinoline]",145,260,216,9.09,82,152,148,5.94,favorable,particularly advantageous
"COc1cc2c(cc1OC)C(C)N(NC(=O)c1ccc(Cl)c(S(N)(=O)=O)c1)CC2 (stereo not drawn) [Example 3, 1-methyl-2-[(3'-sulfamoyl-4'-chloro-benzoyl)-amino]-6,7-dimethoxy-1,2,3,4-tetrahydro-isoquinoline-monohydrate]",104,186,147,4.74,84,121,112,3.99,–,–
